Three compounds from patent US20240159744A1, “COLON CANCER DIAGNOSIS OR DETECTION COMPOSITION FOR PREDICTING RESPONSE TO DRUG, AND COMPOSITION FOR PREVENTING OR TREATING COLON CANCER” (priority 2020, published 2024) can be followed below.

The subject of one series is HCT-8-bearing mice. Kind of series: Antitumor effect of EGF-prodrug in vivo. The settings on record: 1 mg/kg of DOX, 6 times every 3 days, 21 days. How it is done: 2×10^6 HCT-15 cells or HCT-8 cells were subcutaneously inoculated to Balb/c-nude mice. […] The injection was carried out into the tail vein every 3 days for a total of 6 times. Antitumor effect was evaluated by sacrificing the mice to which the HCT-15 or HCT-8 cells were administered and measuring the volume of tumor tissue. The volume of the tumor tissue was calculated every day or every other day by 0.53×length×width^2. Tumor growth was monitored for 21 days. After sacrificing the mice, the HCT-15 or HCT-8 tumor tissues were collected. The dissected tumors were imaged and fixed by treating with 4% paraformaldehyde. […] The sections were used for histological or pathological investigation. They were stained with H&E for visualization and subjected to TUNEL assay using a […] TUNEL system (Promega, WI, USA) for investigation of the apoptosis of cancer cells. The tumor tissues stained with H&E and TUNEL were observed using a BX51 optical microscope (Olympus, Tokyo, Japan) and a TCS SP8 confocal laser microscope.

The test system of series [1] is HCT-15, HT29, Lovo and HCT-8 cells. Kind of series: In-vitro toxicity test (CCK-8), statements over all four cell lines. It is filed as cell-based, human. As to conditions: 48 hours. How it is done: First, HCT-15 cells were plated on a 96-well plate at a density of 5×10^3 cell/well. […] 48 hours later, the medium was removed and the cells were treated with a cell counting kit (CCK-8, Dojindo, Japan) at 37° C. for 1 hour. Absorbance was measured at 450 nm using a VERSAmax™ microplate reader (Molecular Devices Corp., CA, USA). The cell viability of each group (n=5) was represented as a percentage of normal untreated cells (control group). […] After removing the medium, cell viability was evaluated by CCK-8 assay.

The subject of series [2] is HCT-15 tumor-bearing mice. Kind of series: Tumor-targeting ability and biodistribution of DOX, C-prodrug, EGF-prodrug. It counts as in vivo. The settings on record: intravenous, 24 hours. From the text:
In addition, the tumor-targeting ability of DOX, the C-prodrug and the EGF-prodrug was compared.

Series [3] deals with HCT-15 tumor-bearing mice. The series can be described thus: In-vivo and ex-vivo fluorescence imaging of EGF-Cy5.5, C-probe, EGF-probe. As to conditions: cryosections, confocal. How it is done:
The biodistribution of the EGF-probe intravenously administered to mice having HCT-15, HT29, Lovo or HCT-8 tumors was evaluated. First of all, 6-week-old Balb/c-nude mice (Nara-Biotec, Gyeonggi-do, Korea) were prepared and each cell was subcutaneously inoculated into the nude mice at the right flank at a concentration of 2×10^6 cells/mouse to generate tumors. […] At 24 hours after the administration of the EGF-probe, the mouse was imaged using an IVIS fluorescence imaging system. […] IVIS fluorescence imaging was conducted at 24 hours after the administration. Major organs and tumors were obtained and imaged with an IVIS imaging system. The fluorescence intensity of the organs and tumors was analyzed using the Living Image 2.50 software. […] The tumor tissue sections were counter-stained with DAPI and visualized with a confocal microscope.

As for `COc1cccc2c1C(=O)c1c(O)c3c(c(O)c1C2=O)C[C@@](O)(C(=O)CO)C[C@@H]3O[C@H]1C[C@H](N)[C@H](O)[C@H](C)O1.Cl` [DOX, doxorubicin hydrochloride], in the series with HCT-8-bearing mice, the tumor size result is reported as “not controlled significantly”. Also, the cytotoxicity versus concentration entry in series [1] is “increased with the concentration”. The “ex-vivo distribution in organs and tumor” value in series [2] is “significant amounts were accumulated also in the lung, liver and kidney”.
As to (Ac)CGFLG-DOX [C-prodrug], the tumor size result in the series with HCT-8-bearing mice is “not controlled significantly”.
For Cy5.5-GFLGGK(BHQ-3)GG-COOH [C-probe], in series [3], the “fluorescence of tumor tissue sections” value was “much weaker fluorescence signals”.
